Experimental data reported in patent publication US20090306059A1, “CYCLIC AMINE DERIVATIVE HAVING SUBSTITUTED ALKYL GROUP” (priority 2005, published 2009).
Counter-ions that a name gives are not always drawn.

System: platelet aggregation caused by ADP in platelet-rich plasma (PRP) after oral administration
Assay: Test Example 2: ex vivo platelet aggregation inhibitory effect
Type: in vivo, rat (male Sprague-Dawley)
Conditions: 10 mg/kg orally, 4 hours before blood sampling, rat PRP, ADP final concentration 3 μM, maximum platelet aggregation ratio, read-out: Test Example 1 (% inhibition) 10 mg/kg
Description: Male Sprague-Dawley rats (8-week old, Japan SLC, Inc.), 3 to 4 animals per group, were used for the test. The platelet aggregation was measured with an automatic platelet aggregometer (MCM Hema Tracer 313M, MC Medical, Inc.) by a partially modified method of Bom et al., The Journal of Physiology, Vol. 168, Section 178 (1963). Test compounds suspended in 5% Arabian gum solution or 10% dimethylacetamide/64% polyethylene glycol 400/16% Tween 80 solution were orally administered in a dose ratio of 1 mL/kg 4 hours before blood sampling. Vehicle was orally administered 4 hours in a dose ratio of 1 mL/kg before the sampling of the blood for the control group. 6.3 ml of blood was sampled from the ventral aorta of a rat anesthetized with pentobarbital (40 mg/kg) using 3.8% (w/v) sodium citrate solution (0.7 ml) as an anticoagulant. The obtained blood containing citrate was centrifuged (230 g, 15 minutes, room temperature) to separate PRP. The blood after the separation of PRP was further centrifuged (2,000 g, 10 minutes, room temperature) to separate PPP. After the number of blood platelet in PRP was measured with a multi-item automatic blood corpuscle counter (KX-21N, Sysmex Corporation), PPP was added thereto to adjust the blood platelet to 5×10^8/ml. After PRP (240 μl) was pipetted into cuvettes, the cuvettes were set in the automatic platelet aggregometer. After preliminary warming (37° C.) for 1.5 minutes, 10 μl of ADP solution (final concentration 3 μM) was added to cause platelet aggregation. Platelet aggregation was measured for 5 minutes and the maximum platelet aggregation ratio was determined.

Row | Compound | inhibition at 10 mg/kg [%]
1 | CCOC(=O)CN1CCN(C/C=C2\CN(C(C(=O)C3CC3)c3ccccc3F)CCC2SC(C)=O)CC1=O (centres unmarked) [Example 13, (E)-4-(Acetylsulfanyl)-1-[2-cyclopropyl-1-(2-fluorophenyl)-2-oxoethyl]-3-{2-[4-(ethoxycarbonylmethyl)-3-oxopiperazin-1-yl]ethylidene}piperidine] | 63
2 | CCOC(=O)CCN1CCN(C/C=C2\CN(C(C(=O)C3CC3)c3ccccc3F)CCC2SC(C)=O)CC1=O (centres unmarked) [Example 17, (E)-4-(Acetylsulfanyl)-1-[2-cyclopropyl-1-(2-fluorophenyl)-2-oxoethyl]-3-(2-{4-[2-(ethoxycarbonyl)ethyl]-3-oxopiperazin-1-yl}ethylidene)piperidine] | 92
3 | CCOC(=O)CCN1CCN(C/C=C2\CN(C(C(=O)C3CC3)c3ccccc3F)CCC2SC(C)=O)C(=O)C1 (centres unmarked) [Example 21, (E)-4-(Acetylsulfanyl)-1-[2-cyclopropyl-1-(2-fluorophenyl)-2-oxoethyl]-3-(2-{4-[2-(ethoxycarbonyl)ethyl]-2-oxopiperazin-1-yl}ethylidene)piperidine dihydrochloride] | 90
4 | CC(=O)SC1CCN(C(C(=O)C2CC2)c2ccccc2F)C/C1=C\CN1CCN(CCC(=O)O)CC1=O (centres unmarked) [Example 24, (E)-4-(Acetylsulfanyl)-3-(2-{4-[2-(carboxyethyl)]-2-oxopiperazin-1-yl}ethylidene)-1-[2-cyclopropyl-1-(2-fluorophenyl)-2-oxoethyl]piperidine dihydrochloride] | 85
5 | COC(=O)[C@@H]1CCCN1C/C=C1\CN(C(C(=O)C2CC2)c2ccccc2F)CCC1SC(C)=O (stereo partly drawn) [Example 25, (E)-4-(Acetylsulfanyl)-1-[2-cyclopropyl-1-(2-fluorophenyl)-2-oxoethyl]-3-{2-[(2S)-(methoxycarbonyl)pyrrolidin-1-yl]ethylidene}piperidine dihydrochloride] | 92
6 | COC(=O)[C@@H]1CCCN1C/C=C1\CN(C(C(=O)C2CC2)c2ccccc2F)CCC1S (stereo partly drawn) [Example 26, (E)-1-[2-Cyclopropyl-1-(2-fluorophenyl)-2-oxoethyl]-3-{2-[(2S)-(methoxycarbonyl)pyrrolidin-1-yl]ethylidene}-4-sulfanylpiperidine dihydrochloride] | 92
7 | CCOC(=O)C1CCN(C/C=C2\CN(C(C(=O)C3CC3)c3ccccc3F)CCC2SC(C)=O)CC1 (centres unmarked) [Example 29, (E)-4-(Acetylsulfanyl)-1-[2-cyclopropyl-1-(2-fluorophenyl)-2-oxoethyl]-3-{2-[4-(ethoxycarbonyl)piperidin-1-yl]ethylidene}piperidine dihydrochloride] | 89
8 | CCOC(=O)C1CCN(C/C=C2\CN(C(C(=O)C3CC3)c3ccccc3F)CCC2S)CC1 (centres unmarked) [Example 30, (E)-1-[2-Cyclopropyl-1-(2-fluorophenyl)-2-oxoethyl]-3-{2-[4-(ethoxycarbonyl)piperidin-1-yl]ethylidene}-4-sulfanylpiperidine dihydrochloride] | 93
9 | O=C(O)C1CCN(C/C=C2\CN(C(C(=O)C3CC3)c3ccccc3F)CCC2S)CC1 (centres unmarked) [Example 31, (E)-3-{2-[4-(Carboxypiperidine)-1-yl]ethylidene}-1-[2-cyclopropyl-1-(2-fluorophenyl)-2-oxoethyl]-4-sulfanylpiperidine dihydrochloride] | 82
10 | CC(=O)SC1CCN(C(C(=O)C2CC2)c2ccccc2F)C/C1=C\CO (centres unmarked) [Example 32, (E)-4-(Acetylsulfanyl)-1-[2-cyclopropyl-1-(2-fluorophenyl)-2-oxoethyl]-3-(2-hydroxyethylidene)piperidine] | 86
11 | CCOC(=O)CN1CCC(/C=C2\CN(C(C(=O)C3CC3)c3ccccc3F)CCC2SC(C)=O)CC1 (centres unmarked) [Example 36, (E)-4-(Acetylsulfanyl)-1-[2-cyclopropyl-1-(2-fluorophenyl)-2-oxoethyl]-3-{[1-(ethoxycarbonylmethyl)piperidin-4-yl]methylidene}piperidine dihydrochloride] | 80
12 | CCOC(=O)CN1CCC(/C=C2\CN(C(C(=O)C3CC3)c3ccccc3F)CCC2S)CC1 (centres unmarked) [Example 38, (E)-1-[2-Cyclopropyl-1-(2-fluorophenyl)-2-oxoethyl]-3-{[1-(ethoxycarbonylmethyl)piperidin-4-yl]methylidene}-4-sulfanylpiperidine dihydrochloride] | 66
13 | C/C(Cn1cc(C(=O)O)cn1)=C1/CN(C(C(=O)C2CC2)c2ccccc2F)CCC1S (centres unmarked) [Example 62, (E)-3-{[2-(4-Carboxy-1H-pyrazol-1-yl)-1-methyl]ethylidene}-1-[2-cyclopropyl-1-(2-fluorophenyl)-2-oxoethyl]-4-sulfanylpiperidine hydrochloride] | 94
14 | O=C(O)C/C=C1\CN(C(C(=O)C2CC2)c2ccccc2F)CCC1S (centres unmarked) [Example 64, (E)-3-(2-Carboxyethylidene)-1-[2-cyclopropyl-1-(2-fluorophenyl)-2-oxoethyl]-4-sulfanylpiperidine hydrochloride] | 94
15 | CC(=O)SC1CCN(C(C(=O)C2CC2)c2ccccc2F)C/C1=C/CO (centres unmarked) [Example 66, (Z)-4-(Acetylsulfanyl)-1-[2-cyclopropyl-1-(2-fluorophenyl)-2-oxoethyl]-3-(2-hydroxyethylidene)piperidine hydrochloride] | 87
16 | O=C(O)CCCN1CCN(C/C=C2\CN(C(C(=O)C3CC3)c3ccccc3F)CCC2S)C(=O)C1 (centres unmarked) [Example 72, (E)-3-(2-{4-[3-(Carboxypropyl)]-2-oxopiperazin-1-yl}ethylidene)-1-[2-cyclopropyl-1-(2-fluorophenyl)-2-oxoethyl]-4-sulfanylpiperidine dihydrochloride] | 76
17 | COC(=O)[C@@H]1C[C@@H](O)CN1C/C=C1\CN(C(C(=O)C2CC2)c2ccccc2F)CCC1SC(C)=O (stereo partly drawn) [Example 78, (E)-4-(Acetylsulfanyl)-1-[2-cyclopropyl-1-(2-fluorophenyl)-2-oxoethyl]-3-{2-[(2S,4R)-4-hydroxy-2-(methoxycarbonyl)pyrrolidin-1-yl]ethylidene}piperidine dihydrochloride] | 75
18 | CCOC(=O)CN(C)C/C=C1\CN(C(C(=O)C2CC2)c2ccccc2F)CCC1SC(C)=O (centres unmarked) [Example 81, (E)-4-(Acetylsulfanyl)-1-[2-cyclopropyl-1-(2-fluorophenyl)-2-oxoethyl]-3-{2-[N-(ethoxycarbonylmethyl)-N-methylamino]ethylidene}piperidine dihydrochloride] | 83
19 | CCOC(=O)CN(C)C/C=C1\CN(C(C(=O)C2CC2)c2ccccc2F)CCC1S (centres unmarked) [Example 82, (E)-1-[2-Cyclopropyl-1-(2-fluorophenyl)-2-oxoethyl]-3-{2-[N-(ethoxycarbonylmethyl)-N-methylamino]ethylidene}-4-sulfanylpiperidine dihydrochloride] | 81
20 | CCOC(=O)CN(C)C/C=C1/CN(C(C(=O)C2CC2)c2ccccc2F)CCC1SC(C)=O (centres unmarked) [Example 84, (Z)-4-(Acetylsulfanyl)-1-[2-cyclopropyl-1-(2-fluorophenyl)-2-oxoethyl]-3-{2-[N-(ethoxycarbonylmethyl)-N-methylamino]ethylidene}piperidine dihydrochloride] | 82
